From patent US10137116B2, “Benzimidazole sulfide derivatives for the treatment or prevention of tuberculosis” (priority 2015, dated 2018)
pIC50: −log10 of the molar value. Values after ≈ are worked out from the molar mass of the structure shown. “Also recorded” adds a separate entry of the source. Like-named read-outs stand apart in the source and are kept apart here.

Key:
[1] = system: intracellular Mtb-GFP (Mtb-Erdman) in MRC-5 fibroblasts; assay: microbe, parasite or virus in culture; format: cell-based, Mycobacterium tuberculosis; conditions: for pIC50 / IC50: Mycobacterium tuberculosis, ERDMAN, MRC5; for IC50: read-out: IC50 intracellular; for activity in ex vivo assay: intracellular (ex vivo) assay
Mtb H37Rv = assay: microbe, parasite or virus in culture; format: cell-based, Mycobacterium tuberculosis; conditions: for pIC50 / IC50: Mycobacterium tuberculosis, H37RV; for IC50: read-out: IC50 against Mtb in broth
[2] = system: Mycobacterium tuberculosis H37Rv; assay: REMA MIC; format: cell-based
[3] = system: Mycobacterium tuberculosis Erdman; assay: REMA MIC; format: cell-based
[4] = system: Mycobacterium tuberculosis HN878 (Beijing strain); assay: REMA MIC; format: cell-based
[5] = system: Mycobacterium abcessus 2005-0524; assay: REMA MIC; format: cell-based; conditions: 20050524
Mycobacterium avium = assay: REMA MIC; format: cell-based
[6] = system: Mycobacterium bolletii 1999-0888; assay: REMA MIC; format: cell-based; conditions: Mycobacteroides abscessus, 19990888
Mycobacterium marinum M = assay: REMA MIC; format: cell-based
[7] = system: Mycobacterium massiliense 2005-0484; assay: REMA MIC; format: cell-based; conditions: Mycobacteroides abscessus, 20050484
[8] = system: Mycobacterium smegmatis mc2155; assay: microbe, parasite or virus in culture; format: cell-based; conditions: Mycolicibacterium smegmatis
[9] = system: Mycobacterium vaccae ATCC 15483; assay: REMA MIC; format: cell-based; conditions: Mycolicibacterium vaccae, ATCC15483
Pseudomonas aeruginosa = assay: REMA MIC; format: cell-based
Pseudomonas putida = assay: REMA MIC; format: cell-based
Salmonella typhimurium = assay: REMA MIC; format: cell-based; conditions: Salmonella enterica
Staphylococcus aureus = assay: REMA MIC; format: cell-based
Bacillus subtilis = assay: REMA MIC; format: cell-based
Candida albicans = assay: REMA MIC; format: cell-based
[10] = system: Corynebacterium diphtheriae; assay: REMA MIC; format: cell-based
[11] = system: Corynebacterium glutamicum; assay: REMA MIC; format: cell-based
Enterococcus faecalis = assay: REMA MIC; format: cell-based
Escherichia coli = assay: REMA MIC; format: cell-based
Listeria monocytogenes = assay: REMA MIC; format: cell-based
Micrococcus Luteus = assay: REMA MIC; format: cell-based
Mtb strains = assay: MIC, summary statement for Mtb strains; format: cell-based; conditions: Mycobacterium tuberculosis; Mtb strains such as H37Rv, Erdman and HN878 (Table 3)
non-Mtb strains = assay: MIC, summary statement for non-Mtb strains; format: cell-based; conditions: other non-Mtb strains such as Mycobacterium abcessus 2005-0524 or Escherichia coli
Mtb-H37Rv = format: in vivo, BALB/c mice; conditions: 300 mg/kg twice a day for 9 days, vs vehicle TPGS, FIG. 4
THP-1 = format: cell-based
Description: (§1) Cytotoxicity of LPZS on THP1 macrophages, human liver hepatoma cells (HuH7-D12), human lung epithelial carcinoma cells (A549) and human embryonic liver cells (HepG2) (Table 5).

HepG2 = format: cell-based, human
Description: as §1

[12] = parameters: species or system BALB/c mice; conditions: BALB/c, mouse, in vivo, 0.5 h
Experimental: For pharmacokinetic studies BALB/c mice (18-20 g) were given 100 mg/kg or 300 mg/kg LPZS in 20% TPGS (D-α tocopheryl polyethylene glycol 1000 succinate). At given time-points, blood from 3 mice was taken and, after spinning, serum was treated with acetonitrile (1:4 ratio). After a second spin, supernatants were frozen for LC/MS experiments.
BALB/c mice were given 100 mg/kg or 300 mg/kg of LPZS by oral gavage and serum levels were determined after 0.5, 1, 2, 4, 8 and 24 hours (FIG. 5).

[13] = doses as high as 300 mg/kg twice a day
human proton pump = human proton pump (Homo sapiens, UniProt P20648); conditions: cited from earlier work
Sequence of human proton pump (P20648 whole entry): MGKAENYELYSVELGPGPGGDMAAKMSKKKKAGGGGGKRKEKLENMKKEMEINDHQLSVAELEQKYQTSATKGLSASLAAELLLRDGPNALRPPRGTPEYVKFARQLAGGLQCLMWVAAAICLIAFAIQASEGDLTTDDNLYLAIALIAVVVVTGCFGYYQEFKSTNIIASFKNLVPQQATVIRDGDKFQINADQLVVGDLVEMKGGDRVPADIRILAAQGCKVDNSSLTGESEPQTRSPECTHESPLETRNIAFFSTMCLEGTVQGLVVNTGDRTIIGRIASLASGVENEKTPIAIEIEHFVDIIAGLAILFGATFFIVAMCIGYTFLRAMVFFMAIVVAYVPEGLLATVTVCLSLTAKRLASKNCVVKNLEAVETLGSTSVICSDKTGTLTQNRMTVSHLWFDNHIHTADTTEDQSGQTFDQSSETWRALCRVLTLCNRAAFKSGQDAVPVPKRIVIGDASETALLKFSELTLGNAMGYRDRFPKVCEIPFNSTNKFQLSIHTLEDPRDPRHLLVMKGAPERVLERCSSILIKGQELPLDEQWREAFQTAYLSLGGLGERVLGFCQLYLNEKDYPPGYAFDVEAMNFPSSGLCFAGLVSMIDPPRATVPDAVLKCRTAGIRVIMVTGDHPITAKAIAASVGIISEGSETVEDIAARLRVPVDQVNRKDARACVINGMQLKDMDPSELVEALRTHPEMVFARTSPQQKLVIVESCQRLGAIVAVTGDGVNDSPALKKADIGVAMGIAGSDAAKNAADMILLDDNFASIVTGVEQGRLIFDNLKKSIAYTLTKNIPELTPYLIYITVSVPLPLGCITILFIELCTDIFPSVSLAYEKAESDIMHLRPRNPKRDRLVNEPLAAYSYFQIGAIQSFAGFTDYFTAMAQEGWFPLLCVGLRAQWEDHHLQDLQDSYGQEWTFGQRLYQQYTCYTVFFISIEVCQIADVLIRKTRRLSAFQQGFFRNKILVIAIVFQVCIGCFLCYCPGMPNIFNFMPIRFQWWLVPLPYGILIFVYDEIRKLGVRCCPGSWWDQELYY
Sequence of human proton pump (P51164 whole entry partner): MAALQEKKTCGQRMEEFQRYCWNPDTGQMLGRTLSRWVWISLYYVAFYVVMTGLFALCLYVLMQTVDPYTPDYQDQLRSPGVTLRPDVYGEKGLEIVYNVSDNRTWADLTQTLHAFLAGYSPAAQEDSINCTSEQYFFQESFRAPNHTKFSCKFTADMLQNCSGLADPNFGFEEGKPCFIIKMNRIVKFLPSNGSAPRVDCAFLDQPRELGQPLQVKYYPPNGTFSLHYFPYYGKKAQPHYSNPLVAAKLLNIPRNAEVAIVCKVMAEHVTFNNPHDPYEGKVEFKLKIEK

[14] = system: Mtb-Erdman infected MRC-5 human lung fibroblasts; assay: Fibroblast survival assay (HTS): protection of MRC-5 lung fibroblasts from Mtb-induced cytotoxicity; format: cell-based, Mycobacterium tuberculosis; conditions: for activity in fibroblast survival assay: concentrations up to 50 μM, FIG. 1
[15] = system: intracellular Mtb-GFP in RAW264.7 macrophages; assay: microbe, parasite or virus in culture; format: cell-based; conditions: Mycobacterium tuberculosis, FIG. 2B, read-out: IC50 (growth of intracellular bacteria)
[16] = Intracellular drug quantification in MRC-5 cells (LC/MS); format: in vitro ADME, human; conditions: MRC-5 cells exposed to 2 μM, 48 hours
Experimental: For intracellular drug quantification, 20000 MRC-5 cells were seeded in 96 well plates and exposed to 2 μM of LPZ. At given time-points, cells were extensively washed with PBS and lysed with 0.1% Triton X-100 in PBS and acetonitrile (1:1 ratio). After spinning at 15,000 g at 4° C., samples were shock frozen in liquid nitrogen and stored at −80° C. for MS.
Quantification in 7H9 broth was performed with 500 nM of LPZ, acetonitrile was added in a 1:1 ratio at given time-points followed by spinning and shock freezing. The UPLC separation was done on an Agilent 1290 Infinity LC system including the 1290 Infinity LC system Binary Pump with integrated degasser, the High Performance Autosampler and a thermostatted column compartment. The samples (2 μL) were injected into a Zorbax Extend-C18 (2.1×50 mm, 1.8 μm) analytical column operated at 40° C., using H2O—HCOOH 0.1% and CH3CN—HCOOH 0.1% as mobile phases A and B (2 to 100% B in 5 min) at a flow rate of 0.4 mL/min. The UPLC system was interfaced with a 6530 Accurate-Mass Q-TOF LC/MS system (Agilent Technologies). Electrospray-ionisation MS data were acquired in the positive ionization mode, in the mass range m/z 100-1000 (2 spectra/s). […]
The intracellular LPZ and possible metabolites were quantified at different time-points over a period of 48 hours using LC/MS.

[17] = Drug quantification in 7H9 broth (LC/MS); format: physicochemical; conditions: 500 nM, 48 hours, FIG. 3C
Experimental: Quantification in 7H9 broth was performed with 500 nM of LPZ, acetonitrile was added in a 1:1 ratio at given time-points followed by spinning and shock freezing. The UPLC separation was done on an Agilent 1290 Infinity LC system including the 1290 Infinity LC system Binary Pump with integrated degasser, the High Performance Autosampler and a thermostatted column compartment. The samples (2 μL) were injected into a Zorbax Extend-C18 (2.1×50 mm, 1.8 μm) analytical column operated at 40° C., using H2O—HCOOH 0.1% and CH3CN—HCOOH 0.1% as mobile phases A and B (2 to 100% B in 5 min) at a flow rate of 0.4 mL/min. The UPLC system was interfaced with a 6530 Accurate-Mass Q-TOF LC/MS system (Agilent Technologies). Electrospray-ionisation MS data were acquired in the positive ionization mode, in the mass range m/z 100-1000 (2 spectra/s). Experimental parameters were set as follows: Fragmentor: 190V, Vcap: 3500 V, gas temperature: 300° C., sheath gas temperature: 350° C. External calibration was carried out with a solution of ESI_L (Agilent). Data were processed using MassHunter.
In mycobacterial growth medium, the results were markedly different. A rapid decay of LPZ was also observed confirming the instability of this drug. However, though LPZS was detectable in increasing amounts over time, it was not the major product of LPZ decay (FIG. 3C). […]

Cc1c(OCC(F)(F)F)ccnc1CSc1nc2ccccc2[nH]1 [LPZS, Lanzoprazole sulfide]
pIC50 ([1]; read-out: IC50 (intracellular activity)): 6.23 | IC50 ([1]; table values in nM): 590 nM | pIC50 (Mtb H37Rv; read-out: IC50 (Mtb in broth)): 6.34 | IC50 (Mtb H37Rv; table values in nM): 460 nM | MIC [2]: 1.13 µM (≈ 0.399 µg/mL) | MIC [3]: 1.21 µM (≈ 0.428 µg/mL) | MIC [4]: 1.74 µM (≈ 0.615 µg/mL) | MIC [5]: > 100 µM | MIC (Mycobacterium avium): > 100 µM | MIC [6]: > 100 µM | MIC (Mycobacterium marinum M): 100 µM (≈ 35.3 µg/mL) | MIC [7]: > 100 µM | MIC [8]: > 100 µM | MIC [9]: > 100 µM | MIC (Pseudomonas aeruginosa): > 100 µM | MIC (Pseudomonas putida): > 100 µM | MIC (Salmonella typhimurium): > 100 µM | MIC (Staphylococcus aureus): > 100 µM | MIC (Bacillus subtilis): > 100 µM | MIC (Candida albicans): > 100 µM | MIC [10]: > 100 µM | MIC [11]: > 100 µM | MIC (Enterococcus faecalis): > 100 µM | MIC (Escherichia coli): > 100 µM | MIC (Listeria monocytogenes): > 100 µM | MIC (Micrococcus Luteus): > 100 µM | MIC (Mtb strains): < 2 µM | MIC (non-Mtb strains): > 100 µM | bacterial burden (cfu) in the lungs (Mtb-H37Rv): significantly reduced | TD50 (THP-1): 75 µM | TD99 (THP-1): >100 µM | TD50 (HepG2): 25 µM | TD99 (HepG2): 100 µM | concentration in blood relative to Cmax [12]: 100 % of Cmax | signs of toxicity in mice [13]: no signs of toxicity | activity towards the human proton pump (human proton pump): no activity

COc1ccnc(C[S+]([O-])c2nc3cc(OC(F)F)ccc3[nH]2)c1OC.[Na+] (stereo not shown)
IC50 intracellular ([1]; table values in μM or words): Inactive | IC50 against Mtb in broth (Mtb H37Rv; table values in μM or words): Inactive

COc1ccnc(C[S+]([O-])c2nc3ccc(OC(F)F)cc3[nH]2)c1OC (stereo not shown) [Pantoprazole]
activity in fibroblast survival assay [14]: inactive | activity in ex vivo assay [1]: inactive | activity in in vitro assay (Mtb H37Rv): inactive

5-hydroxy Lansoprazole potassium
activity in ex vivo assay [1]: inactive | activity in in vitro assay (Mtb H37Rv): inactive

Cc1c(Cl)ccnc1CSc1nc2ccccc2[nH]1 [4-Desmethoxypropoxyl-4-chloro rabebrazole sulfide]
IC50 ([1]; table values in μM or words): 6000 nM | pIC50 (Mtb H37Rv; read-out: IC50 (Mtb in broth)): 4.92 to 5.22 | IC50 (Mtb H37Rv; table values in μM or words): 6000 to 12000 nM

COc1ccc2[nH]c([S+]([O-])Cc3ncc(C)c(OC)c3C)nc2c1 (stereo not shown) [drawing 26]
IC50 intracellular ([1]; table values in μM or words): Inactive | IC50 against Mtb in broth (Mtb H37Rv; table values in μM or words): Inactive

COc1ccc2[nH]c(SCc3ncc(C)cc3C)nc2c1
IC50 intracellular ([1]; table values in μM or words): inactive | IC50 against Mtb in broth (Mtb H37Rv; table values in μM or words): inactive

Cc1c(SCCN2CCc3ccccc3C2)ccnc1CSc1nc2ccccc2[nH]1
IC50 (Mtb H37Rv; table values in μM or words): 2700 nM

COCCCOc1ccnc(C[S+]([O-])c2nc3ccccc3[nH]2)c1C (stereo not shown) [Rabeprazole sodium]
IC50 ([1]; table values in μM or words): 6000 nM | pIC50 (Mtb H37Rv; read-out: IC50 (Mtb in broth)): 4.60 | pIC50 (Mtb H37Rv; read-out: IC50 (inhibit Mtb)): > 4.40 | IC50 (Mtb H37Rv; table values in μM or words): 25000 nM

COc1ccc2[nH]c([S+]([O-])Cc3ncc(C)c(OC)c3C)nc2c1 (stereo not shown) [Omeprazole]
activity in fibroblast survival assay [14]: inactive | activity in ex vivo assay [1]: inactive | activity in in vitro assay (Mtb H37Rv): inactive

FC(F)(F)Oc1ccc(C2CCN(c3ccc(CSc4nc5ccccc5[nH]4)cc3)CC2)cc1
IC50 (Mtb H37Rv; table values in μM or words): ~48000 nM

Cc1c(OCC(F)(F)F)ccnc1C[S+]([O-])c1nc2ccccc2[nH]1 (stereo not shown) [R-Lansoprazole]
IC50 ([1]; table values in μM or words): 1470 nM | pIC50 (Mtb H37Rv; read-out: IC50 (inhibit Mtb)): > 4.40 | IC50 (Mtb H37Rv; table values in μM or words): 32800 nM

Cc1c(OCC(F)(F)F)ccnc1CS(=O)(=O)c1nc2ccccc2[nH]1
IC50 intracellular ([1]; table values in μM or words): Inactive | IC50 against Mtb in broth (Mtb H37Rv; table values in μM or words): Inactive

Cc1c(OCC(F)(F)F)ccnc1C[S+]([O-])c1nc2ccccc2[nH]1 (racemic) [LPZ, (RS)-2-([3-méthyl-4-(2,2,2-trifluoroéthoxy)pyridin-2-yl]méthylsulfinyl)-1H-benzimidazole]
fibroblast survival / protection against Mtb induced killing [14]: supported fibroblast survival at rates comparable to well established anti-mycobacterial drugs such as Rifampicin and Moxifloxacine; also recorded: inhibits the growth of Mtb as well as Rifampicin or Moxifloxacine | pIC50 ([1]; MRC-5 cells, FIG. 2A, read-out: IC50 (Mtb-GFP signal)): 5.83 | IC50 ([1]; table values in μM or words): 1470 nM | pIC50 [15]: 5.66 | pIC50 (Mtb H37Rv; read-out: IC50 (Mtb in broth)): 4.48 | pIC50 (Mtb H37Rv; read-out: IC50 (inhibit Mtb)): > 4.40 | IC50 (Mtb H37Rv; table values in μM or words): 32800 nM | intracellular decay [16]: rapid intracellular decay | decay in mycobacterial growth medium [17]: rapid decay

COCCCOc1ccnc(CSc2nc3ccccc3[nH]2)c1C [Rabeprazole sulfide]
IC50 ([1]; table values in μM or words): 3000 nM | pIC50 (Mtb H37Rv; read-out: IC50 (Mtb in broth)): 5.30 | IC50 (Mtb H37Rv; table values in μM or words): 5000 nM
